# How the values were obtained:
# Assay in all cases: relative viability (nuclei count vs DMSO), 5 days (fraction); higher = more cells survive
# [1] = compound: CCOC1=CC=CC=C1N=NC2=C(NN(C2=O)C3=NC(=CS3)C4=CC=CC=C4)C [BAM7] + O=C(c1cc(Cc2n[nH]c(=O)c3ccccc23)ccc1F)N1CCN(C(=O)C2CC2)CC1 [Olaparib] (partner 8 µM)
# Procedure, shortened: (§1)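 A single step with final 0.05% Triton X-100, 1% formaldehyde and 1 ug/ml Hoechst fixed the cells and stained nuclei 5 days after treatment. Lung cancer cell lines in 1536-well plates had been treated by pin tool the day after seeding with one drug alone or a fixed anchor-drug dose plus five library-drug doses (not always all listed) in √10 steps, and nuclei were counted on 4× images. Relative viability is the ratio of nuclei in treated wells to nuclei in vehicle wells, taken as the median of duplicate plates.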
# [2] = compound: CCOC1=CC=CC=C1N=NC2=C(NN(C2=O)C3=NC(=CS3)C4=CC=CC=C4)C [BAM7] + Cc1cc(Nc2cc(N3CCN(C)CC3)nc(Sc3ccc(NC(=O)C4CC4)cc3)n2)n[nH]1 [Tozasertib] (partner 0.1 µM)
# Procedure, shortened: as §1
# [3] = compound: CCOC1=CC=CC=C1N=NC2=C(NN(C2=O)C3=NC(=CS3)C4=CC=CC=C4)C [BAM7] + C[C@]1(O)C[C@@H](c2nc(-c3ccc4ccc(-c5ccccc5)nc4c3)c3c(N)nccn32)C1 [Linsitinib] (partner 1 µM)
# Procedure, shortened: as §1
# [4] = compound: CCOC1=CC=CC=C1N=NC2=C(NN(C2=O)C3=NC(=CS3)C4=CC=CC=C4)C [BAM7] + CS(=O)(=O)CCNCc1ccc(-c2ccc3ncnc(Nc4ccc(OCc5cccc(F)c5)c(Cl)c4)c3c2)o1 [Lapatinib] (partner 2 µM)
# Procedure, shortened: as §1
# [5] = compound: CCOC1=CC=CC=C1N=NC2=C(NN(C2=O)C3=NC(=CS3)C4=CC=CC=C4)C [BAM7] + CC(C)C[C@H](NC(=O)[C@H](Cc1ccccc1)NC(=O)c1cnccn1)B(O)O [Bortezomib] (partner 0.002 µM)
# Procedure, shortened: as §1
Cell Line,relative viability ([1]; first compound 0.5 µM),relative viability ([1]; first compound 5 µM),relative viability ([1]; first compound 15.81 µM),relative viability ([1]; first compound 50 µM),relative viability ([2]; first compound 0.5 µM),relative viability ([2]; first compound 5 µM),relative viability ([2]; first compound 15.81 µM),relative viability ([2]; first compound 50 µM),relative viability ([3]; first compound 0.5 µM),relative viability ([3]; first compound 5 µM),relative viability ([3]; first compound 15.81 µM),relative viability ([3]; first compound 50 µM),relative viability ([4]; first compound 0.5 µM),relative viability ([4]; first compound 5 µM),relative viability ([4]; first compound 15.81 µM),relative viability ([4]; first compound 50 µM),relative viability ([5]; first compound 0.5 µM),relative viability ([5]; first compound 5 µM),relative viability ([5]; first compound 15.81 µM),relative viability ([5]; first compound 50 µM)
NCI-H522,0.725,0.585,0.61,0.643,0.574,0.57,0.561,0.583,–,–,–,–,–,–,–,–,–,–,–,–
HCC-15,0.849,0.695,0.687,0.728,0.471,0.493,0.346,0.284,0.914,0.905,0.859,0.853,0.912,0.896,0.908,0.865,1.02,1.06,1,0.934
A-427,0.707,0.736,0.756,0.762,0.202,0.199,0.216,0.202,1.14,1.1,1.05,1.14,1.01,1.09,1.03,1.09,0.965,0.978,0.893,1.04
NCI-H2228,0.802,0.932,0.547,0.585,0.239,0.23,0.208,0.286,0.674,0.789,0.554,0.842,1.31,1.19,1.05,1.1,1.31,1.31,0.798,1.21
NCI-H1734,0.57,0.664,0.599,0.609,0.289,0.253,0.246,0.248,0.946,1.07,0.821,0.937,1.1,1.23,0.974,1.11,1.13,1.12,0.888,0.978
PC-14,0.305,0.216,0.161,0.234,0.58,0.595,0.591,0.557,0.984,1.04,0.953,0.975,0.334,0.324,0.309,0.351,0.918,1.03,0.846,0.806
NCI-H1915,0.269,0.262,0.223,0.259,0.443,0.4,0.405,0.399,1.08,1.2,1.08,1.1,1.02,1.09,0.911,1.04,0.988,1.01,1.09,1.03
NCI-H1666,0.818,0.727,0.752,0.781,0.586,0.57,0.613,0.591,0.835,0.867,0.734,0.854,0.47,0.7,0.564,0.754,0.852,0.682,0.729,0.998
HCC-366,0.328,0.263,0.226,0.307,0.0637,0.0775,0.062,0.0627,0.67,0.501,0.583,0.677,1.09,1.1,1.03,0.984,1.09,1.11,1.08,1.08
SK-MES-1,0.82,0.703,0.613,0.704,1.03,0.907,0.752,0.772,1.11,1.05,1.03,1.07,0.488,0.438,0.423,0.505,–,–,–,–
SW 1573,0.574,0.583,0.461,0.46,0.213,0.174,0.165,0.191,0.838,0.742,0.819,0.896,1.17,1.23,1.09,1.33,0.953,1.07,1.07,0.972
NCI-H661,0.796,0.855,0.716,0.725,0.376,0.361,0.359,0.358,0.672,0.605,0.433,0.601,0.704,0.494,0.41,0.54,0.807,0.738,0.656,0.827
PC-3 [JPC-3],1.12,1.1,1.06,0.995,0.776,0.7,0.72,0.735,0.905,0.966,0.868,0.835,0.425,0.472,0.427,0.412,0.824,0.751,0.782,0.585
NCI-H1623,–,–,–,–,0.389,0.367,0.357,0.371,–,–,–,–,–,–,–,–,–,–,–,–
Calu-6,0.552,0.598,0.53,0.531,–,–,–,–,1.1,1.11,0.913,1.02,1.06,1.09,1.05,1.07,0.969,0.986,0.94,1.01
LC-2-ad,0.676,0.633,0.634,0.646,0.501,0.424,0.466,0.451,0.856,0.898,0.812,0.783,1.09,0.948,0.933,0.859,1.05,0.974,0.957,1
CAL-12T,0.764,0.653,0.652,0.711,0.311,0.257,0.236,0.24,0.929,0.743,0.75,0.852,0.677,0.581,0.599,0.692,0.986,0.97,1,1.09

# Reference: the supplement of paper PMC10307832
